The text below walks through data of ChEMBL document CHEMBL1125945, “Tripyl-convergent total synthesis of a homochiral benzoindane-fused prostacyclin analog” (Bioorg Med Chem Lett, 1991).

The term IC50 denotes the concentration that inhibits the measured activity by half. Low values mean greater potency, high ones weaker potency.

The species named for this assay is Homo sapiens. Kind of assay: Compound was tested for inhibitory activity against collagen induced platelet aggregation. The assay is classed as functional.

`O=C(O)COc1cccc2c1[C@H]1C[C@@H](O)[C@H](C#C[C@@H](O)C3CCCCC3)[C@H]1C2` came in with an IC50 of 2.5 µM.
